Test results from the kinase profiling compilation of Christmann-Franck et al. (2016).

Columns and labels:
Assay in all cases: radiometric filter-binding kinase assay, Kinase HotSpot
Details in all cases: compound 0.5 µM; ATP 10 µM
PHKG2 (human) = PHKG2 (human) (UniProt P15735)
GSK3B (human) = GSK3B (human) (UniProt P49841)
MAP4K2 (human) = MAP4K2 (human) (UniProt Q12851)
NEK6 (human) = NEK6 (human) (UniProt Q9HC98)
ADRBK1 (human) = ADRBK1 (human) (UniProt P25098)
CDK9 CCNK (human) = CDK9 CCNK (human) (UniProt O75909+P50750)
CHEK2 (human) = CHEK2 (human) (UniProt O96017)
LRRK2 (human) = LRRK2 (human) (UniProt Q5S007)
Sequence of LRRK2 (human) (Q5S007 whole entry, looked up): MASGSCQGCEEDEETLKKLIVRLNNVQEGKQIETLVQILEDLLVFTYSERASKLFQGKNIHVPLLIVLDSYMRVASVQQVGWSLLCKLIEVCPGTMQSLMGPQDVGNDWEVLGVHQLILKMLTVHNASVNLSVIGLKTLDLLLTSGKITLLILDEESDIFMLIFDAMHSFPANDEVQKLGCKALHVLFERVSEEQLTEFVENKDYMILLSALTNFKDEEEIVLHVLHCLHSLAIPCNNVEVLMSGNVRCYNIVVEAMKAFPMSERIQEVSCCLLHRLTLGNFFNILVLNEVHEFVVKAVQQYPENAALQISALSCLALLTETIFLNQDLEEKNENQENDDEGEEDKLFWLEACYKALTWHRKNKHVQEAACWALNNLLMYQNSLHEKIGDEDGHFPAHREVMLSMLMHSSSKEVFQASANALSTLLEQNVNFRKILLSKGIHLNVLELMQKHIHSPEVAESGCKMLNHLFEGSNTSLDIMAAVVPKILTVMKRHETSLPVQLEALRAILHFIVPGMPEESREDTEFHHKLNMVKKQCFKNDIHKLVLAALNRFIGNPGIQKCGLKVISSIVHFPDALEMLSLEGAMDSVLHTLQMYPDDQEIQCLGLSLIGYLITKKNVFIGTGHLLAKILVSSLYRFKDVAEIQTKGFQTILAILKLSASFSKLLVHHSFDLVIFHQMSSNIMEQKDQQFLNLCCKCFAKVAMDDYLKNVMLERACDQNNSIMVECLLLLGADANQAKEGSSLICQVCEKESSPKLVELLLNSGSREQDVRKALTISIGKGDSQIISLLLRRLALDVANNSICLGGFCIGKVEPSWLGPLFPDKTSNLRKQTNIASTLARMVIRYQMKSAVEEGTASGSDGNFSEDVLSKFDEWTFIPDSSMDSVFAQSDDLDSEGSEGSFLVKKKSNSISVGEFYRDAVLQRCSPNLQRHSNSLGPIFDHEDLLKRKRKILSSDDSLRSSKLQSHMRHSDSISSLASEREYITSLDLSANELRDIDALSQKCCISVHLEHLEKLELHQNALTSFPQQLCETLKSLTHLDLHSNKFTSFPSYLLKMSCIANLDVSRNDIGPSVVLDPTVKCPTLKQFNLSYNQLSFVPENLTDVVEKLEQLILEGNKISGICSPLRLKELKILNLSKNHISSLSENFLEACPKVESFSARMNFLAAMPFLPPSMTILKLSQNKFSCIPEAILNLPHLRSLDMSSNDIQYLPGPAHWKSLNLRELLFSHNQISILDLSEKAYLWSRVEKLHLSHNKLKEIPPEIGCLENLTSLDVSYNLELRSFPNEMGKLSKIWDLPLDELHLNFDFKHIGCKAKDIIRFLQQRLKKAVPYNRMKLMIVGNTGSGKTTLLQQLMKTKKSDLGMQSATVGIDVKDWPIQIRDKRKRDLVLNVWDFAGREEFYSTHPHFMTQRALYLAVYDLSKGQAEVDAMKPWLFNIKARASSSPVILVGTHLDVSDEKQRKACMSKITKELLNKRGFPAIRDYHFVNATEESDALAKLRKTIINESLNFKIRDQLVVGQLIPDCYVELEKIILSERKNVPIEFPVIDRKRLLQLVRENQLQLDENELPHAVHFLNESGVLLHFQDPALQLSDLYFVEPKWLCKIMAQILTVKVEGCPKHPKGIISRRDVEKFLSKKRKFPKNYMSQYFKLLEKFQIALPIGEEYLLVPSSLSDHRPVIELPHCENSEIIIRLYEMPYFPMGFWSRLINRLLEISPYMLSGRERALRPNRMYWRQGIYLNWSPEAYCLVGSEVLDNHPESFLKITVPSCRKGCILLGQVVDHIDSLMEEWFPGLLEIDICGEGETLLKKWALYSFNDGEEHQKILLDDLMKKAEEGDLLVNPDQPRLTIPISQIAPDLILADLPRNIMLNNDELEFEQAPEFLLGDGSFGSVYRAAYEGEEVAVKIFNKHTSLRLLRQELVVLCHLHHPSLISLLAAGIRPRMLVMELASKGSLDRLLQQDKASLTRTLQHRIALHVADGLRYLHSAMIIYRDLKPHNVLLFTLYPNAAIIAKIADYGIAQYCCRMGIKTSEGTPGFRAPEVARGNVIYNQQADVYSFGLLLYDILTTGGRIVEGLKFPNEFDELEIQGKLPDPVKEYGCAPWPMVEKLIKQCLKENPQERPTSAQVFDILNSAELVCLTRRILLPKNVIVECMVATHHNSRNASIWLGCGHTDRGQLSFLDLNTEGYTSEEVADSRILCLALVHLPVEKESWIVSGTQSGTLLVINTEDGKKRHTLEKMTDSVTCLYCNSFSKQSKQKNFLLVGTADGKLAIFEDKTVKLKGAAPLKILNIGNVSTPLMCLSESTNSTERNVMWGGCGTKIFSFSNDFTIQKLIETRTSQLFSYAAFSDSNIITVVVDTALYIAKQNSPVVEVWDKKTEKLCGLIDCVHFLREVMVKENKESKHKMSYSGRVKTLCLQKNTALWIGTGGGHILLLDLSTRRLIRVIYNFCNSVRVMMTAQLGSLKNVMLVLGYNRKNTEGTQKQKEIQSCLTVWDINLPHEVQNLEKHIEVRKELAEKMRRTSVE

PLK1 (human) = PLK1 (human) (UniProt P53350)
CSF1R (human) = CSF1R (human) (UniProt P07333)
TTK (human) = TTK (human) (UniProt P33981)
Sequence of TTK (human) (P33981 whole entry, looked up): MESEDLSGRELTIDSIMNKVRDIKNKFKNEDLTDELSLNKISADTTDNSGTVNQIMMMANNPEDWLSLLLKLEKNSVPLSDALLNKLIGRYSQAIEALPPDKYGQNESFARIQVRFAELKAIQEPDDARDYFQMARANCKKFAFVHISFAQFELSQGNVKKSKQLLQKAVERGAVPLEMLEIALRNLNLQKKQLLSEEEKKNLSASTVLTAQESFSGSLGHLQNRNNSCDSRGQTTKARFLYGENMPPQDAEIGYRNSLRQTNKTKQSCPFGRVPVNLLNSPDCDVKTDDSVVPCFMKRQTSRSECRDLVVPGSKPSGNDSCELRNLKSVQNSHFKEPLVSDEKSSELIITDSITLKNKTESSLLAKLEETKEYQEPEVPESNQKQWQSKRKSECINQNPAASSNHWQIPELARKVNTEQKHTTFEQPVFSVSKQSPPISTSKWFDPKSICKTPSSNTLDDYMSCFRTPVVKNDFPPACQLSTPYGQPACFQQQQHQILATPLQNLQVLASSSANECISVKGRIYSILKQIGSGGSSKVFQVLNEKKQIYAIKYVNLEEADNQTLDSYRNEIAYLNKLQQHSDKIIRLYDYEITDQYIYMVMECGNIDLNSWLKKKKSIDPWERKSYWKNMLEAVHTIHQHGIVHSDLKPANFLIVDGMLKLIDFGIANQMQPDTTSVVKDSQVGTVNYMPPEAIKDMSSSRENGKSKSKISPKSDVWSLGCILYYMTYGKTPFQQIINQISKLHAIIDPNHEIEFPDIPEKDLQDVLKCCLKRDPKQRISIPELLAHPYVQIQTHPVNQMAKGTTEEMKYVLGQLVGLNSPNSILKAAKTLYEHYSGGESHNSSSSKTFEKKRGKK

ACVR1 (human) = ACVR1 (human) (UniProt Q04771)
MAP3K5 (human) = MAP3K5 (human) (UniProt Q99683)
MAPKAPK3 (human) = MAPKAPK3 (human) (UniProt Q16644)
Sequence of MAPKAPK3 (human) (Q16644 whole entry, looked up): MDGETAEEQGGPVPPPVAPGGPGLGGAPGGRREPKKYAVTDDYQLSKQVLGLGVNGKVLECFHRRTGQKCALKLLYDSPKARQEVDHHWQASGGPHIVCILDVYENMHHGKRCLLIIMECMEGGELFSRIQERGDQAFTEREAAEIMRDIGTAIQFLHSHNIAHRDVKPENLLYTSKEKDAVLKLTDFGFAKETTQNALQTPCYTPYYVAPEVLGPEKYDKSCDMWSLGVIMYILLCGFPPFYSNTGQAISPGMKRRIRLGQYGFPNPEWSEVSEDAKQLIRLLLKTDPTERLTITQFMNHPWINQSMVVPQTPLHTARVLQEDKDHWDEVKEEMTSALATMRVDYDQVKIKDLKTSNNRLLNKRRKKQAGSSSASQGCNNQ

SRMS (human) = SRMS (human) (UniProt Q9H3Y6)
PRKCB1 (human) = PRKCB1 (human) (UniProt P05771)
NEK3 (human) = NEK3 (human) (UniProt P51956)
DYRK4 (human) = DYRK4 (human) (UniProt Q9NR20)
NEK4 (human) = NEK4 (human) (UniProt P51957)
CDK6 CCND1 (human) = CDK6 CCND1 (human) (UniProt Q00534+P24385)
PRKCA (human) = PRKCA (human) (UniProt P17252)
[1] = tested on: PRKCQ (human), Q04759 [P330L]
PRKCZ (human) = PRKCZ (human) (UniProt Q05513)
FGFR4 (human) = FGFR4 (human) (UniProt P22455)
MAPK10 (human) = MAPK10 (human) (UniProt P53779)
ADRBK2 (human) = ADRBK2 (human) (UniProt P35626)
TGFBR1 (human) = TGFBR1 (human) (UniProt P36897)
Sequence of TGFBR1 (human) (P36897 whole entry, looked up): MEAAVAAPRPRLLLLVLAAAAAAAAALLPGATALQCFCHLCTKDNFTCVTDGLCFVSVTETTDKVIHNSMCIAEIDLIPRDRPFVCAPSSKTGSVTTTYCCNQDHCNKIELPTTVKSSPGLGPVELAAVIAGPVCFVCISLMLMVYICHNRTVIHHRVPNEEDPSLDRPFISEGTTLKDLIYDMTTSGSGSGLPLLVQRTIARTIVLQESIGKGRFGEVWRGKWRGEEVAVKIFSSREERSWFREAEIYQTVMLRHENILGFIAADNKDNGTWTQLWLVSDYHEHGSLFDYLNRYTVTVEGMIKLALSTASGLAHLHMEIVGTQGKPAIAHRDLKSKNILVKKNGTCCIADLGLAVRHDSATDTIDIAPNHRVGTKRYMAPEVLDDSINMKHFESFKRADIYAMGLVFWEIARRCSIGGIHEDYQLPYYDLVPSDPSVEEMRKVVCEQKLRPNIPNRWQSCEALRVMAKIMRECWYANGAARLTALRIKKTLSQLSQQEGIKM

CDK3 CCNE1 (human) = CDK3 CCNE1 (human) (UniProt Q00526+P24864)
DYRK1B (human) = DYRK1B (human) (UniProt Q9Y463)
ERBB4 (human) = ERBB4 (human) (UniProt Q15303)
NUAK1 (human) = NUAK1 (human) (UniProt O60285)
PDGFRA (human) = PDGFRA (human) (UniProt P16234)
MAP3K9 (human) = MAP3K9 (human) (UniProt P80192)
PTK6 (human) = PTK6 (human) (UniProt Q13882)
GRK7 (human) = GRK7 (human) (UniProt Q8WTQ7)
TBK1 (human) = TBK1 (human) (UniProt Q9UHD2)
Sequence of TBK1 (human) (Q9UHD2 whole entry, looked up): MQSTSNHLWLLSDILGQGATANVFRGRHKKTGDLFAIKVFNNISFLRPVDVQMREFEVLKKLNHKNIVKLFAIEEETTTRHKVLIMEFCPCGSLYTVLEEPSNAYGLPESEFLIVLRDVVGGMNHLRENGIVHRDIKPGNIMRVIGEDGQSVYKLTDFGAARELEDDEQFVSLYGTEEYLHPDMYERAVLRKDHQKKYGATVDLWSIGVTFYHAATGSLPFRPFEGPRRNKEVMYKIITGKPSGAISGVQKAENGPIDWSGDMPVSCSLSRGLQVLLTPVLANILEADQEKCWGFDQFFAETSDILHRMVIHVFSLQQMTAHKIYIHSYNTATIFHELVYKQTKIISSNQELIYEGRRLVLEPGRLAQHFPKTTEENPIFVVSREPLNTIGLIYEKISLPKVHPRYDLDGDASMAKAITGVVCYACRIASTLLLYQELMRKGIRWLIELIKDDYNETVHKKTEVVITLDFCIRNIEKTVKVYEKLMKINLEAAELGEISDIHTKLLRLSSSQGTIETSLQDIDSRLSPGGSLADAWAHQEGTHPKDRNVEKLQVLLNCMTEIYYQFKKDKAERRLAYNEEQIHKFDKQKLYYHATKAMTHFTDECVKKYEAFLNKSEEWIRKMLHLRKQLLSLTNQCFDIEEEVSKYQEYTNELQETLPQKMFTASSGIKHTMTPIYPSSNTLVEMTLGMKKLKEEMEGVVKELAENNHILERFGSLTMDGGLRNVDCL

EPHA8 (human) = EPHA8 (human) (UniProt P29322)
WNK3 (human) = WNK3 (human) (UniProt Q9BYP7)
CAMK2G (human) = CAMK2G (human) (UniProt Q13555)
PRKG2 (human) = PRKG2 (human) (UniProt Q13237)
NEK7 (human) = NEK7 (human) (UniProt Q8TDX7)
CDK2 CCNE1 (human) = CDK2 CCNE1 (human) (UniProt P24941+P24864)

COc1ccc2c(c1)/C(=C/c1cnc[nH]1)C(O)=N2
residual activity (PHKG2 (human)): 88.3% | residual activity (GSK3B (human)): 35.4% | residual activity (MAP4K2 (human)): 42.6% | residual activity (NEK6 (human)): 98.2% | residual activity (ADRBK1 (human)): 107% | residual activity (CDK9 CCNK (human)): 59.4% | residual activity (CHEK2 (human)): 77.9% | residual activity (LRRK2 (human)): 27.9% | residual activity (PLK1 (human)): 103% | residual activity (CSF1R (human)): 88.7% | residual activity (TTK (human)): 59.9% | residual activity (ACVR1 (human)): 105% | residual activity (MAP3K5 (human)): 103% | residual activity (MAPKAPK3 (human)): 102% | residual activity (SRMS (human)): 103% | residual activity (PRKCB1 (human)): 112% | residual activity (NEK3 (human)): 87.8% | residual activity (DYRK4 (human)): 98.5% | residual activity (NEK4 (human)): 96% | residual activity (CDK6 CCND1 (human)): 13.3% | residual activity (PRKCA (human)): 91.3% | residual activity [1]: 109% | residual activity (PRKCZ (human)): 107% | residual activity (FGFR4 (human)): 85.8% | residual activity (MAPK10 (human)): 105% | residual activity (ADRBK2 (human)): 101% | residual activity (TGFBR1 (human)): 98.1% | residual activity (CDK3 CCNE1 (human)): 35.2% | residual activity (DYRK1B (human)): 53.1% | residual activity (ERBB4 (human)): 106% | residual activity (NUAK1 (human)): 8.87% | residual activity (PDGFRA (human)): 94.9% | residual activity (MAP3K9 (human)): 58% | residual activity (PTK6 (human)): 87.7% | residual activity (GRK7 (human)): 99.7% | residual activity (TBK1 (human)): 70.7% | residual activity (EPHA8 (human)): 103% | residual activity (WNK3 (human)): 88.5% | residual activity (CAMK2G (human)): 94.6% | residual activity (PRKG2 (human)): 99.7%

CO[C@@H]1[C@H](N(C)C(=O)c2ccccc2)C[C@H]2O[C@]1(C)n1c3ccccc3c3c4c(c5c6ccccc6n2c5c31)C(=O)NC4
residual activity (PHKG2 (human)): 79.7% | residual activity (MAP4K2 (human)): 5.17% | residual activity (NEK6 (human)): 110% | residual activity (ADRBK1 (human)): 102% | residual activity (CDK9 CCNK (human)): 71% | residual activity (CHEK2 (human)): 85.1% | residual activity (LRRK2 (human)): 8.46% | residual activity (PLK1 (human)): 95.4% | residual activity (CSF1R (human)): 6.65% | residual activity (TTK (human)): 55% | residual activity (ACVR1 (human)): 95.5% | residual activity (MAP3K5 (human)): 101% | residual activity (MAPKAPK3 (human)): 91.5% | residual activity (SRMS (human)): 97.6% | residual activity (NEK7 (human)): 101% | residual activity (NEK3 (human)): 107% | residual activity (DYRK4 (human)): 96.4% | residual activity (NEK4 (human)): 97.6% | residual activity (CDK2 CCNE1 (human)): 81.2% | residual activity (CDK6 CCND1 (human)): 96.5% | residual activity (PRKCZ (human)): 98.6% | residual activity (FGFR4 (human)): 84.2% | residual activity (MAPK10 (human)): 98.9% | residual activity (ADRBK2 (human)): 97.5% | residual activity (TGFBR1 (human)): 98.7% | residual activity (CDK3 CCNE1 (human)): 81.9% | residual activity (DYRK1B (human)): 35.6% | residual activity (NUAK1 (human)): 2.71% | residual activity (PDGFRA (human)): 30% | residual activity (MAP3K9 (human)): 0.446% | residual activity (PTK6 (human)): 96.2% | residual activity (GRK7 (human)): 15.5% | residual activity (TBK1 (human)): 3.22% | residual activity (EPHA8 (human)): 94.1% | residual activity (WNK3 (human)): 91.4% | residual activity (CAMK2G (human)): 43.9%

O=C(c1cc2cc(O)ccc2[nH]1)c1cc2cc(O)ccc2[nH]1
residual activity (PHKG2 (human)): 105% | residual activity (GSK3B (human)): 78.7% | residual activity (MAP4K2 (human)): 67.1% | residual activity (NEK6 (human)): 99.6% | residual activity (ADRBK1 (human)): 98.2% | residual activity (CDK9 CCNK (human)): 49.5% | residual activity (CHEK2 (human)): 80.1% | residual activity (LRRK2 (human)): 87.2% | residual activity (PLK1 (human)): 101% | residual activity (CSF1R (human)): 97.7% | residual activity (TTK (human)): 92.9% | residual activity (ACVR1 (human)): 123% | residual activity (MAP3K5 (human)): 89.6% | residual activity (MAPKAPK3 (human)): 91.2% | residual activity (SRMS (human)): 93.7% | residual activity (PRKCB1 (human)): 90.4% | residual activity (NEK7 (human)): 101% | residual activity (NEK3 (human)): 111% | residual activity (DYRK4 (human)): 99.7% | residual activity (NEK4 (human)): 87.6% | residual activity (CDK2 CCNE1 (human)): 65% | residual activity (CDK6 CCND1 (human)): 81.2% | residual activity (PRKCA (human)): 84.1% | residual activity [1]: 92.1% | residual activity (FGFR4 (human)): 92.8% | residual activity (MAPK10 (human)): 91.6% | residual activity (ADRBK2 (human)): 102% | residual activity (TGFBR1 (human)): 93.4% | residual activity (CDK3 CCNE1 (human)): 85.2% | residual activity (DYRK1B (human)): 92% | residual activity (ERBB4 (human)): 102% | residual activity (NUAK1 (human)): 69.2% | residual activity (PDGFRA (human)): 65.3% | residual activity (MAP3K9 (human)): 42.6% | residual activity (PTK6 (human)): 91.9% | residual activity (GRK7 (human)): 99.8% | residual activity (TBK1 (human)): 35% | residual activity (EPHA8 (human)): 92.9% | residual activity (WNK3 (human)): 74.6% | residual activity (CAMK2G (human)): 89.5% | residual activity (PRKG2 (human)): 80.6%

C[C@@H]1CCN(C(=O)CC#N)C[C@@H]1N(C)c1ncnc2[nH]ccc12
residual activity (PHKG2 (human)): 98.6% | residual activity (GSK3B (human)): 99.6% | residual activity (MAP4K2 (human)): 102% | residual activity (NEK6 (human)): 83.2% | residual activity (ADRBK1 (human)): 95.3% | residual activity (CDK9 CCNK (human)): 102% | residual activity (CHEK2 (human)): 104% | residual activity (LRRK2 (human)): 51.3% | residual activity (PLK1 (human)): 101% | residual activity (CSF1R (human)): 101% | residual activity (TTK (human)): 108% | residual activity (ACVR1 (human)): 104% | residual activity (MAP3K5 (human)): 97.8% | residual activity (MAPKAPK3 (human)): 100% | residual activity (SRMS (human)): 95.8% | residual activity (PRKCB1 (human)): 101% | residual activity (NEK3 (human)): 94.5% | residual activity (DYRK4 (human)): 97.2% | residual activity (NEK4 (human)): 96% | residual activity (CDK2 CCNE1 (human)): 90.7% | residual activity (CDK6 CCND1 (human)): 96.5% | residual activity (PRKCA (human)): 78.7% | residual activity [1]: 89% | residual activity (PRKCZ (human)): 91.7% | residual activity (FGFR4 (human)): 94.3% | residual activity (MAPK10 (human)): 100% | residual activity (ADRBK2 (human)): 99.2% | residual activity (TGFBR1 (human)): 98.8% | residual activity (CDK3 CCNE1 (human)): 92.3% | residual activity (DYRK1B (human)): 97% | residual activity (ERBB4 (human)): 100% | residual activity (NUAK1 (human)): 71.2% | residual activity (PDGFRA (human)): 104% | residual activity (MAP3K9 (human)): 113% | residual activity (PTK6 (human)): 101% | residual activity (GRK7 (human)): 102% | residual activity (TBK1 (human)): 92.5% | residual activity (EPHA8 (human)): 109% | residual activity (WNK3 (human)): 104% | residual activity (CAMK2G (human)): 127% | residual activity (PRKG2 (human)): 106%

Cc1cncc2cccc(S(=O)(=O)N3CCCN(C(=O)CN)C[C@H]3C)c12
residual activity (PHKG2 (human)): 90.5% | residual activity (MAP4K2 (human)): 106% | residual activity (NEK6 (human)): 93.3% | residual activity (ADRBK1 (human)): 101% | residual activity (CDK9 CCNK (human)): 103% | residual activity (CHEK2 (human)): 96.2% | residual activity (LRRK2 (human)): 54.6% | residual activity (PLK1 (human)): 101% | residual activity (CSF1R (human)): 95.6% | residual activity (TTK (human)): 111% | residual activity (ACVR1 (human)): 95.8% | residual activity (MAP3K5 (human)): 106% | residual activity (MAPKAPK3 (human)): 98.8% | residual activity (SRMS (human)): 106% | residual activity (PRKCB1 (human)): 99.4% | residual activity (NEK7 (human)): 103% | residual activity (NEK3 (human)): 91.1% | residual activity (DYRK4 (human)): 90.3% | residual activity (NEK4 (human)): 95.3% | residual activity (CDK2 CCNE1 (human)): 92.3% | residual activity (CDK6 CCND1 (human)): 99.8% | residual activity (PRKCA (human)): 109% | residual activity [1]: 105% | residual activity (PRKCZ (human)): 91.2% | residual activity (FGFR4 (human)): 79.5% | residual activity (MAPK10 (human)): 103% | residual activity (ADRBK2 (human)): 95% | residual activity (TGFBR1 (human)): 100% | residual activity (CDK3 CCNE1 (human)): 98% | residual activity (DYRK1B (human)): 101% | residual activity (ERBB4 (human)): 78.4% | residual activity (NUAK1 (human)): 91.1% | residual activity (PDGFRA (human)): 93.5% | residual activity (MAP3K9 (human)): 94.4% | residual activity (PTK6 (human)): 87.8% | residual activity (GRK7 (human)): 88.8% | residual activity (TBK1 (human)): 95.7% | residual activity (EPHA8 (human)): 95% | residual activity (WNK3 (human)): 97.3% | residual activity (CAMK2G (human)): 94% | residual activity (PRKG2 (human)): 88.1%
